Experimental data taken from ChEMBL document CHEMBL5625266, “Design, synthesis and biological evaluation of novel cyclic malonamide derivatives as selective RIPK1 inhibitors” (Bioorg Med Chem Lett, 2024).

Experiments:
[1] = biological target: T1, Receptor-interacting serine/threonine-protein kinase 1 (Homo sapiens, UniProt Q13546); test: Inhibition of human RIPK1 assessed as inhibition constant by ADP-Glo Kinase assay
T1 sequence (Q13546 whole entry): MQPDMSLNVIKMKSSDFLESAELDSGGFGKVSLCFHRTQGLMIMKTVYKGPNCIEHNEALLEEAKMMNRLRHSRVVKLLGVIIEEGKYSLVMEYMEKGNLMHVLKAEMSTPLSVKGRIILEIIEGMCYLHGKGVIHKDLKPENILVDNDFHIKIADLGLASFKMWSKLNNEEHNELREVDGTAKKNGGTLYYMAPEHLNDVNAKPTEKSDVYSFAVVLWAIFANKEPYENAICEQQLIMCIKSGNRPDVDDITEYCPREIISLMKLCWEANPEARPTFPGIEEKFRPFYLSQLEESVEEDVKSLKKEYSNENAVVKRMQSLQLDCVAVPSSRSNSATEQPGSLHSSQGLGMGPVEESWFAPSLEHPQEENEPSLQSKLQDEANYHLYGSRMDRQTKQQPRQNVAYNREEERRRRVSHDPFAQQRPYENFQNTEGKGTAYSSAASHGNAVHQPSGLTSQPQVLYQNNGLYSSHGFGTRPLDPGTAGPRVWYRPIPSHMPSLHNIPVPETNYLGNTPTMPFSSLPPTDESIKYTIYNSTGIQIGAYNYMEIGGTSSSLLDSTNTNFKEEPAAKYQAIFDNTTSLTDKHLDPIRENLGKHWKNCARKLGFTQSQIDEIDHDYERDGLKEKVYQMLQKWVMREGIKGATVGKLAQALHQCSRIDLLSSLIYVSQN

U-937 = test: Inhibition of necroptosis in human U-937 cells; format: functional, cell-based
[2] = biological target: Mitogen-activated protein kinase kinase kinase 9 (Homo sapiens) (UniProt P80192); test: Inhibition of MLK1 (unknown origin) at 10 uM relative to control
Mitogen-activated protein kinase kinase kinase 9 (Homo sapiens), sequence (P80192 whole entry, looked up): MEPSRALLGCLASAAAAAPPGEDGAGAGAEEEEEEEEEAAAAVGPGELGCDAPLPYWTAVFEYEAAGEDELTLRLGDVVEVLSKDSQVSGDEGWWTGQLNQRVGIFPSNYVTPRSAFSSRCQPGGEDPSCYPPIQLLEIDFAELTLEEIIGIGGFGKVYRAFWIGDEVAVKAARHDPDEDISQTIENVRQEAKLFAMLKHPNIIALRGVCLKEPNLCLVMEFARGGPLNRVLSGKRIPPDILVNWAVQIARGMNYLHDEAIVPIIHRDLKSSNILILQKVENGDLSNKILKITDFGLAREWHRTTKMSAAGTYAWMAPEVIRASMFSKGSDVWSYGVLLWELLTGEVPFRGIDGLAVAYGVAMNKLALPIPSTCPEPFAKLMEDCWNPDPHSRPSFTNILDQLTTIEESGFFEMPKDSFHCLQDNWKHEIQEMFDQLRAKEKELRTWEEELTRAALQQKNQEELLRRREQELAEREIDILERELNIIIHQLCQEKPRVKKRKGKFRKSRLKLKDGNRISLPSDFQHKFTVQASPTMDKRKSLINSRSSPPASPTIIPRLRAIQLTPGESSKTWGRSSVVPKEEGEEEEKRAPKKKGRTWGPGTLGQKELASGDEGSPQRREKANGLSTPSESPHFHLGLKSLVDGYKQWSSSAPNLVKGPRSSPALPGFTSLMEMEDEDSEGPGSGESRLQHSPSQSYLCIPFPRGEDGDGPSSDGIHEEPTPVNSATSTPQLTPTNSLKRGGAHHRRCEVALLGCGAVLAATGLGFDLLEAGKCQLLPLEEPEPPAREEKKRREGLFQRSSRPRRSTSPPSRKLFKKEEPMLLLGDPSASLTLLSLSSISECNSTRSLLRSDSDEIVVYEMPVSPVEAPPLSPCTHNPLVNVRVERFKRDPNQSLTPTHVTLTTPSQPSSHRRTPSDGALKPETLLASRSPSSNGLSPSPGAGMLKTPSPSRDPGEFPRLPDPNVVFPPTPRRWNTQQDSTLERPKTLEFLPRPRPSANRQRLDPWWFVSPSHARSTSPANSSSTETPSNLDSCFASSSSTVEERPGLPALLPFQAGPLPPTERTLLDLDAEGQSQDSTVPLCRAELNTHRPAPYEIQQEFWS

[3] = biological target: T2, Receptor-interacting serine/threonine-protein kinase 1 (Homo sapiens) (UniProt Q13546); test: Inhibition of RIPK1 (unknown origin) at 1 uM relative to control
T2 sequence (whole entry): T1 sequence (Q13546 whole entry)

[4] = Stability of the compound in PBS at pH 7.4 measured after 24 hrs; format: physicochemical; conditions: read-out: Stability

Compound	Ki [1]	IC50 (U-937)	inhibition [2]	inhibition [3]	remaining at 24 h [4]
CN1C(=O)C(C(=O)Nc2cn(Cc3c(F)cccc3F)cn2)CCc2ccccc21 (stereo not drawn)	0.0562 µM	0.148 µM	–	–	–
CN1C(=O)C(C(=O)Nc2nnn(Cc3ccccc3)n2)CCc2ccccc21 (stereo not drawn)	0.0316 µM	0.0363 µM	–	–	–
CN1C(=O)C(C(=O)Nc2ncc(Cc3ccccc3)o2)CCc2ccccc21 (stereo not drawn)	0.2 µM	0.891 µM	–	–	–
COc1cc2c(cn1)N(C)C(=O)C(C(=O)Nc1cn(Cc3ccccc3)cn1)CC2 (stereo not drawn)	0.575 µM	0.427 µM	–	–	–
CN1C(=O)[C@@H](NC(=O)c2n[nH]c(Cc3ccccc3)n2)COc2ccccc21 [GSK2982772]	–	0.00589 µM	–	–	–
COc1cc2c(cn1)N(C)C(=O)[C@@H](C(=O)Nc1ncc(Cc3ccccc3)s1)CC2	0.0219 µM	0.0631 µM	–	–	–
CN1C(=O)C(C(=O)Nc2cn(Cc3ccccc3)nn2)CCc2ccccc21 (stereo not drawn)	0.0589 µM	0.0794 µM	–	–	–
CN1C(=O)C(C(=O)Nc2ncc(Cc3ccccc3)s2)CCc2ccccc21 (stereo not drawn)	0.00191 µM	0.0112 µM	–	–	–
COc1cc2c(cn1)N(C)C(=O)C(C(=O)Nc1ncc(Cc3ccccc3)s1)CC2 (racemic)	0.0525 µM	0.0575 µM	–	–	–
COc1cc2c(cn1)N(C)C(=O)[C@H](C(=O)Nc1ncc(Cc3ccccc3)s1)CC2	1.45 µM	–	28%	–	–
CN1C(=O)C(C(=O)Nc2ncn(Cc3ccccc3)n2)CCc2ccccc21 (stereo not drawn)	0.0437 µM	0.0617 µM	–	–	–
CN1C(=O)C(C(=O)Nc2cn(Cc3ccccc3)cn2)CCc2cccnc21 (stereo not drawn)	0.214 µM	1.1 µM	–	–	–
CN1C(=O)C(C(=O)Nc2nc(Cc3ccccc3)n[nH]2)CCc2ccccc21 (stereo not drawn)	–	–	–	22%	14%
CN1C(=O)C(C(=O)Nc2cn(Cc3ccccc3)cn2)CCc2ccncc21 (stereo not drawn)	0.794 µM	0.562 µM	–	–	–
CN1C(=O)C(C(=O)Nc2cn(Cc3ccccc3)cn2)CCc2ccccc21 (stereo not drawn)	0.135 µM	–	–	–	–
